The target of experiment [1] is T1, tyrosinase (Agaricus bisporus, UniProt C7FF04).
T1 construct: purchased Sigma-Aldrich T3824
The following applies: cited from earlier work; for Mode of tyrosinase inhibition (literature): phlorotannins from seaweeds.

The target in experiment [2] is T1, tyrosinase. The experiment can be described thus: Tyrosinase assay (L-tyrosine substrate, product detected at 475 nm). The experiment is classed as biochemical, mushroom. The following applies: for inhibition at 100 µM: read-out: Inhibitory activity on tyrosinase at 100 μM (%); for Binding mode: Lineweaver–Burk and Dixon plots; for Ki: based on Dixon plots. The procedure:
Phlorotannins of E. cava and E. stolonifera were reported to have the inhibitory activity on mushroom tyrosinase. […] This study evaluated the ability of the isolated phlorotannins 1–7 to suppress the catalytic reaction of tyrosinase over time, in the absence or presence of inhibitor. […]. A commercial tyrosinase inhibitor was used as a positive control (kojic acid; […]. To identify potent inhibitors, the inhibitory activity of all of the isolated compounds at 100 μM was tested against tyrosinase in vitro (Table 1). Of these, compounds 2–5 were confirmed to have inhibitory activity exceeding 50%. Serial dilutions were used to calculate the IC50 values. The tyrosinase inhibitory activity increased in a dose-dependent fashion (Figure 2A). […]. To gain insight into the interaction of the enzyme with phlorotannins, as tyrosinase inhibitors, the products of the catalytic reaction were determined by ultraviolet-visible photometry after the inhibitor was added to the enzyme solution. The IC50 values of compounds 3 and 5 increased linearly with [S]/Km (Figure 2B). […]. Phlorotannins from seaweeds have been used to develop the non-competitive tyrosinase inhibitors 7-phloroeckol, dieckol, and phlorofucofuroeckol A, and the competitive inhibitors phloroglucinol and eckstolonol.
To evaluate inhibitory activity on tyrosinase with isolated compounds, 130 μL of tyrosinase in […] phosphate buffer (pH 6.8) was divided in 96 well plates. 20 μL of compound concentrations ranging from 1–0.015 mM was added. 50 μL of 1.5 mM L-tyrosine in phosphate buffer was diluted into the mixture for calculating the inhibitory activity. 50 μL of 10–0.62 mM L-tyrosine in buffer was added to analyze initial velocity (v0). After starting their reaction for 20 min, an amount of the product was detected at UV–vis 475 nm. […]

The target in experiment [3] is T1, tyrosinase. As to the kind of experiment: Slow-binding inhibition analysis (progress curves). It counts as biochemical, mushroom. The following applies: for Ki: apparent Ki from slow-binding analysis, read-out: kapp i; for Slow-binding mechanism: replot of kobs vs [I]. How it is done:
To confirm time-dependent inhibition by the potential inhibitors (compounds 3 and 5), the substrate was added into a mixture of ligand (3.1 μM) that was preincubated with tyrosinase. Over time, their inhibitory activities increased. To calculate the slow-binding parameters (k3, k4, k5, k6, and kapp i), the progress curves were analyzed using equation (2), with increasing concentrations of compounds 3 and 5 (Figure 3C,D); a replot of kobs was obtained as [I] (Figure 3E,F). The replot of compound 3 was a straight line that fit equation (3). […] The two strongest inhibitors had different slow-binding mechanisms. Inhibitor 5, which has a higher molecular weight, induced a new conformational state of the enzyme.
The progress curves were calculated to Equation (2) by Morrison according to time course for 420 s. [P] = vst + [(v0 − vs)/kobs(1 − e^−kobst)](2) where t is time, [P] is product intensity, v0 and vs are the initial and steady-state reaction velocities, and kobs is the apparent first-order rate […]. kobs = k4 + k3[I](3) (4) Kiapp=k4/k3
This is a linear Equation (3) for slow-binding mechanism A. Kiapp is the apparent value of an inhibitor by Equation (4). Where [I] is inhibitor concentration. (5) kobs=k6+[(k5×[I])/(Kiapp+[I])
Equation (5) of hyperbola is for the calculation of rate constant in slow-binding mechanism B.

Where “and” joins values, the source holds several entries; their conditions need not be identical. Equal values may be shown once. Read-outs that look alike come from different tables or passages of the source.

This is an account of results in article PMC6627058, “Slow-Binding Inhibition of Tyrosinase by Ecklonia cava Phlorotannins” (Marine Drugs, 2019).

T1 sequence (C7FF04 1-392 limits assumed): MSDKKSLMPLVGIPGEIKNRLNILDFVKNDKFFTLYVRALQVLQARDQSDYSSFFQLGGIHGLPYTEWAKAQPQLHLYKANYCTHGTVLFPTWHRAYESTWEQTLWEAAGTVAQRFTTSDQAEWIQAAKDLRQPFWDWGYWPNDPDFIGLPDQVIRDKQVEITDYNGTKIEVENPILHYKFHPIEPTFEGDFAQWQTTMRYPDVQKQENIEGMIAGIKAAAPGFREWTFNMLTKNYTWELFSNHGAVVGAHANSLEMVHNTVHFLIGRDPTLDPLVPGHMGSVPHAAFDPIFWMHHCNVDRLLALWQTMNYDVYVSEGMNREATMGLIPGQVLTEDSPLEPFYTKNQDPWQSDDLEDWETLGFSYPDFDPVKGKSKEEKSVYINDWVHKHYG

In the case of `Oc1cc(O)cc(Oc2c(O)cc(O)c3c2Oc2c(O)cc(Oc4c(O)cc(O)cc4O)cc2O3)c1` [7-phloroeckol], the “Mode of tyrosinase inhibition (literature)” value (shortened to “Mode of tyrosinase inhibition”) on tyrosinase [1] is “non-competitive”.
In the case of `Oc1cc(O)cc(Oc2c(O)cc(O)c3c2Oc2c(O)cc(O)cc2O3)c1` [Compound 2, eckol], 13.5 ± 0.1 µM corresponded to half-maximal inhibition on tyrosinase [2] (IC50, triplicate) (IC50). For the same compound, on tyrosinase [2] (compound at 100 μM, triplicate), the inhibition at 100 µM was determined as 86 ± 4.7%. Moreover, the “Binding mode (reported)” value at tyrosinase [1] was “Reported as non-competitive ^d”.
As for `Oc1cc(O)cc(Oc2c(Oc3c(O)cc(O)cc3O)cc(O)c3c2Oc2c(O)cc(O)cc2O3)c1` [Compound 3, 2-phloroeckol], at tyrosinase [2], the Binding mode result was “Competitive” and the Ki came out at 8.2 µM. Also, at tyrosinase [2] (compound at 100 μM, triplicate), the inhibition at 100 µM is 94.7 ± 1.4%. In addition, the IC50 on tyrosinase [2] (triplicate, read-out: IC50) was < 10 µM and 7 µM. Moreover, on tyrosinase [3], the Ki is 6.5 µM and the Slow-binding mechanism entry is listed as “a single-step binding mechanism”. Moreover, on tyrosinase [3] (slow-binding mechanism A), the K3 was 0.0002 mM/s and the k4 came out at 0.0013 s⁻¹.
`Oc1cc(O)cc(Oc2c(O)cc(O)c3c2Oc2c(O)cc4oc5c(Oc6cc(O)cc(O)c6)c(O)cc(O)c5c4c2O3)c1` [Compound 4, phlorofucofuroeckol A] returned a half-inhibitory concentration (IC50) on tyrosinase [2] (IC50, triplicate) of 66.4 ± 0.1 µM. In addition, the inhibition at 100 µM on tyrosinase [2] (compound at 100 μM, triplicate) turned out to be 57.1 ± 3.3%. The “Mode of tyrosinase inhibition” value at tyrosinase [1] is “non-competitive”.
For `Oc1cc(O)cc(Oc2c(O)cc(O)c3c2Oc2c(O)cc(O)c(-c4c(O)cc(O)c5c4Oc4c(O)cc(Oc6c(O)cc(O)cc6O)c(Oc6cc(O)cc(O)c6)c4O5)c2O3)c1` [Compound 5, 2-O-(2,4,6-trihydroxyphenyl)-6,6′-bieckol], at tyrosinase [2], the Binding mode entry is listed as “Competitive” and the Ki stood at 5.8 µM. Further, the inhibition at 100 µM on tyrosinase [2] (compound at 100 μM, triplicate) stood at 86.9 ± 0.9%. On tyrosinase [2] (triplicate, read-out: IC50), the half-inhibitory concentration (IC50) is < 10 µM and 8.8 µM. In addition, on tyrosinase [3], the Ki is 4.4 µM and the Slow-binding mechanism entry is given as “a two-step binding mechanism”. On tyrosinase [3] (slow-binding mechanism B), this compound yielded a K5 of 0.0047 s⁻¹ and a K6 of 0.0003 s⁻¹.
As to `Oc1cc(O)cc(Oc2c(O)cc(O)c3c2Oc2c(cc(O)c(-c4c(O)cc(O)c5c4Oc4c(O)cc(O)c(Oc6cc(O)cc(O)c6)c4O5)c2O)O3)c1` [Compound 6, 6,8′-bieckol], the inhibition at 100 µM at tyrosinase [2] (compound at 100 μM, triplicate) was found to be 41.2 ± 4.3%.
With `Oc1cc(O)cc(Oc2c(O)cc(O)c3c2Oc2c(cc(O)c(-c4c(O)cc5c(c4O)Oc4c(Oc6cc(O)cc(O)c6)c(O)cc(O)c4O5)c2O)O3)c1` [Compound 7, 8,8′-bieckol], on tyrosinase [2], the inhibition at 100 µM came to 43.3 ± 1.5%.
On to `Oc1cc(O)cc(Oc2c(O)cc(O)c3c2Oc2c(O)cc(Oc4c(O)cc(Oc5c(O)cc(O)c6c5Oc5c(O)cc(O)cc5O6)cc4O)cc2O3)c1` [dieckol], for which, at tyrosinase [1], the “Mode of tyrosinase inhibition” value is recorded as “non-competitive”.
Turning to `Oc1cc(O)cc(O)c1` [phloroglucinol], the “Mode of tyrosinase inhibition” value on tyrosinase [1] is on record as “competitive”.
Consider eckstolonol, for which the “Mode of tyrosinase inhibition” value on tyrosinase [1] was “competitive”.
On to triphlorethol A [Compound 1], for which the “Inhibitory activity on tyrosinase at 100 μM (%)” value at tyrosinase [2] (compound at 100 μM, triplicate) came to 26.7 ± 1.0%.
